Results published in the NIST ThermoML archive (doi:10.1021/je030107c).
“And” between values parts separate entries of the source, which are not always exact repeats. Equal values may be shown once. Numbers after ± are expanded uncertainties.

Assays:
[1] = 101.3 kPa, Liquid; for viscosity: Capillary tube (Ostwald / Ubbelohde) method; for speed of sound: Linear variable-path acoustic interferometer; for mass density: Pycnometric method
[2] = refractive index (Na D-line) (dimensionless); conditions: 101.33 kPa, Liquid, Standard Abbe refractometry
[3] = refractive index (Na D-line) (dimensionless); xn = mol fraction of the nth substance listed; conditions: 101.3 kPa, Liquid, Standard Abbe refractometry
[4] = xn = mol fraction of the nth substance listed; conditions: 101.3 kPa, Liquid; for viscosity: Capillary tube (Ostwald / Ubbelohde) method; for speed of sound: Linear variable-path acoustic interferometer; for mass density: Pycnometric method

OCCO [1,2-ethanediol]
Conditions | mass density, 298.15 K [kg/m3] | mass density, 303.15 K [kg/m3] | mass density, 308.15 K [kg/m3] | refractive index, 298.15 K | refractive index, 303.15 K | refractive index, 308.15 K | speed of sound, 298.15 K [m/s] | viscosity, 298.15 K [mPa·s] | viscosity, 303.15 K [mPa·s] | viscosity, 308.15 K [mPa·s]
[1] | 1111.3 ± 0.6 | 1107.3 ± 0.6 | 1103.5 ± 0.6 | – | – | – | 1659 ± 3 | 12.62 ± 0.09 | 9.618 ± 0.066 | 7.539 ± 0.053
[2] | – | – | – | 1.4307 ± 0.0011 | 1.4269 ± 0.0011 | 1.4246 ± 0.0011 | – | – | – | –

OCCO [1,2-ethanediol] + C1COCCO1
x2 = 0
Conditions | mass density, 298.15 K [kg/m3] | mass density, 303.15 K [kg/m3] | mass density, 308.15 K [kg/m3] | refractive index, 298.15 K | refractive index, 303.15 K | refractive index, 308.15 K | speed of sound, 298.15 K [m/s] | viscosity, 298.15 K [mPa·s] | viscosity, 303.15 K [mPa·s] | viscosity, 308.15 K [mPa·s]
[3] | – | – | – | 1.4307 ± 0.0011 | 1.4269 ± 0.0011 | 1.4246 ± 0.0011 | – | – | – | –
[4] | 1111.3 ± 0.6 | 1107.3 ± 0.6 | 1103.5 ± 0.6 | – | – | – | 1659 ± 3 | 12.62 ± 0.09 | 9.618 ± 0.066 | 7.539 ± 0.053

C1COCCO1 [1,4-dioxane]
Conditions | mass density, 298.15 K [kg/m3] | mass density, 303.15 K [kg/m3] | mass density, 308.15 K [kg/m3] | refractive index, 298.15 K | refractive index, 303.15 K | refractive index, 308.15 K | speed of sound, 298.15 K | viscosity, 298.15 K [mPa·s] | viscosity, 303.15 K [mPa·s] | viscosity, 308.15 K [mPa·s]
[1] | 1027.6 ± 0.6 | 1021.9 ± 0.6 | 1016.2 ± 0.6 | – | – | – | 1347 ± 3 m/s and 1343 ± 3 m/s | 1.166 ± 0.009 | 1.069 ± 0.008 | 0.984 ± 0.008
[2] | – | – | – | 1.4201 ± 0.0011 | 1.417 ± 0.0011 | 1.4143 ± 0.0011 | – | – | – | –

C1COCCO1 [1,4-dioxane] + CCCCN(CCCC)CCCC
x1 = 1
Conditions | mass density, 298.15 K [kg/m3] | mass density, 303.15 K [kg/m3] | mass density, 308.15 K [kg/m3] | refractive index, 298.15 K | refractive index, 303.15 K | refractive index, 308.15 K | speed of sound, 298.15 K [m/s] | viscosity, 298.15 K [mPa·s] | viscosity, 303.15 K [mPa·s] | viscosity, 308.15 K [mPa·s]
[3] | – | – | – | 1.4201 ± 0.0011 | 1.417 ± 0.0011 | 1.4143 ± 0.0011 | – | – | – | –
[4] | 1027.6 ± 0.6 | 1021.9 ± 0.6 | 1016.2 ± 0.6 | – | – | – | 1343 ± 3 | 1.166 ± 0.009 | 1.069 ± 0.008 | 0.984 ± 0.008

C1COCCO1 [1,4-dioxane] + CCN(CC)CC
x1 = 1
Conditions | mass density, 298.15 K [kg/m3] | mass density, 303.15 K [kg/m3] | mass density, 308.15 K [kg/m3] | refractive index, 298.15 K | refractive index, 303.15 K | refractive index, 308.15 K | speed of sound, 298.15 K [m/s] | viscosity, 298.15 K [mPa·s] | viscosity, 303.15 K [mPa·s] | viscosity, 308.15 K [mPa·s]
[3] | – | – | – | 1.4201 ± 0.0011 | 1.417 ± 0.0011 | 1.4143 ± 0.0011 | – | – | – | –
[4] | 1027.6 ± 0.6 | 1021.9 ± 0.6 | 1016.2 ± 0.6 | – | – | – | 1343 ± 3 | 1.166 ± 0.009 | 1.069 ± 0.008 | 0.984 ± 0.008

CCCCCC [hexane]
Conditions | mass density, 298.15 K [kg/m3] | mass density, 303.15 K [kg/m3] | mass density, 308.15 K [kg/m3] | refractive index, 298.15 K | refractive index, 303.15 K | refractive index, 308.15 K | speed of sound, 298.15 K [m/s] | viscosity, 298.15 K [mPa·s] | viscosity, 303.15 K [mPa·s] | viscosity, 308.15 K [mPa·s]
[1] | 654.8 ± 0.4 | 649.7 ± 0.4 | 644.8 ± 0.4 | – | – | – | 1083 ± 3 | 0.315 ± 0.003 | 0.299 ± 0.003 | 0.286 ± 0.003
[2] | – | – | – | 1.3728 ± 0.0011 | 1.3698 ± 0.0011 | 1.367 ± 0.0011 | – | – | – | –

CCCCCC [hexane] + C1COCCO1
x2 = 0
Conditions | mass density, 298.15 K [kg/m3] | mass density, 303.15 K [kg/m3] | mass density, 308.15 K [kg/m3] | refractive index, 298.15 K | refractive index, 303.15 K | refractive index, 308.15 K | speed of sound, 298.15 K [m/s] | viscosity, 298.15 K [mPa·s] | viscosity, 303.15 K [mPa·s] | viscosity, 308.15 K [mPa·s]
[3] | – | – | – | 1.3728 ± 0.0011 | 1.3698 ± 0.0011 | 1.367 ± 0.0011 | – | – | – | –
[4] | 654.8 ± 0.4 | 649.7 ± 0.4 | 644.8 ± 0.4 | – | – | – | 1083 ± 3 | 0.315 ± 0.003 | 0.299 ± 0.003 | 0.286 ± 0.003

CCCCN(CCCC)CCCC [tributylamine]
Conditions | mass density, 298.15 K [kg/m3] | mass density, 303.15 K [kg/m3] | mass density, 308.15 K [kg/m3] | refractive index, 298.15 K | refractive index, 303.15 K | refractive index, 308.15 K | speed of sound, 298.15 K [m/s] | viscosity, 298.15 K [mPa·s] | viscosity, 303.15 K [mPa·s] | viscosity, 308.15 K [mPa·s]
[1] | 774.4 ± 0.4 | 770.1 ± 0.4 | 766.2 ± 0.4 | – | – | – | 1261 ± 3 | 1.36 ± 0.011 | 1.221 ± 0.01 | 1.125 ± 0.009
[2] | – | – | – | 1.4274 ± 0.0011 | 1.4251 ± 0.0011 | 1.4226 ± 0.0011 | – | – | – | –

CCN(CC)CC [triethylamine]
Conditions | mass density, 298.15 K [kg/m3] | mass density, 303.15 K [kg/m3] | mass density, 308.15 K [kg/m3] | refractive index, 298.15 K | refractive index, 303.15 K | refractive index, 308.15 K | speed of sound, 298.15 K [m/s] | viscosity, 298.15 K [mPa·s] | viscosity, 303.15 K [mPa·s] | viscosity, 308.15 K [mPa·s]
[1] | 723.1 ± 0.2 | 718.5 ± 0.3 | 713.6 ± 0.3 | – | – | – | 1127 ± 2 | 0.363 ± 0.003 | 0.347 ± 0.003 | 0.33 ± 0.003
[2] | – | – | – | 1.3983 ± 0.001 | 1.3955 ± 0.001 | 1.3926 ± 0.001 | – | – | – | –
